This experiment concerns the target T1, human PDE2A1 (Homo sapiens, UniProt O00408).
T1 construct: GST; purchased BPS Bioscience (San Diego, Calif.) 60020; host or cells: insect cells
Briefly: IMAP FP PDE assay, human PDE2A1. The class given is biochemical. Particulars: Lab B; read-out: Human PDE2 Ki (nM) Lab B. The method, boiled down: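 GST-tagged human PDE2A1 from insect cells; substrate 50 nM FAM-cAMP containing 1000 nM cGMP in Tris pH 7.2/MgCl2/DTT buffer, enzyme giving 20% conversion. 60 min at room temperature, IMAP binding reagent, fluorescence polarization read. Apparent Ki from FP readings using apparent KM 10,000 nM; ten-point 3-fold titrations.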

Some results are limits rather than exact numbers.

T1 sequence (O00408 1-920 isoform O00408-2): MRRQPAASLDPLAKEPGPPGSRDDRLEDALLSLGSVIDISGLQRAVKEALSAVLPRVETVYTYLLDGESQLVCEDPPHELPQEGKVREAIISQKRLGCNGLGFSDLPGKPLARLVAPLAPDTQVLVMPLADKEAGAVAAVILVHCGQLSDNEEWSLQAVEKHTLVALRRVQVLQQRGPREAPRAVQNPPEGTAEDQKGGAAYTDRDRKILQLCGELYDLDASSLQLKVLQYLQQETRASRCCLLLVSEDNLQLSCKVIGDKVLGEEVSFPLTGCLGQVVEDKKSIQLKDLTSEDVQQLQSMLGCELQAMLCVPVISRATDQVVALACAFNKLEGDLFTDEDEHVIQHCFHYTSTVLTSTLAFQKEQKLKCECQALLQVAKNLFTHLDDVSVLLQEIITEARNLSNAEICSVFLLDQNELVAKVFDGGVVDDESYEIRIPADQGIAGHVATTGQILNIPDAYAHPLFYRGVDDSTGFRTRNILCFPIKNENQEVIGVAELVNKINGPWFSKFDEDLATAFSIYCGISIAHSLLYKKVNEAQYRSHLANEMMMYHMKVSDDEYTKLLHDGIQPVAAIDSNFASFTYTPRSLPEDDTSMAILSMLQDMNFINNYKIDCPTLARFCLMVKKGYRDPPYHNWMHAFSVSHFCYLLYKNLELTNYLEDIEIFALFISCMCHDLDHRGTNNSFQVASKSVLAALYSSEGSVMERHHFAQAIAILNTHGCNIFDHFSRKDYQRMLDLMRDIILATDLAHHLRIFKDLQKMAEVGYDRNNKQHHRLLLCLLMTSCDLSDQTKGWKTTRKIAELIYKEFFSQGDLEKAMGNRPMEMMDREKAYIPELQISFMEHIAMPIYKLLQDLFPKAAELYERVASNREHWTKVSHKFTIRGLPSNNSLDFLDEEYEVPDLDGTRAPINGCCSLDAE

As for `COCC(c1ccc(C(F)(F)F)cc1)n1nc(C(F)F)c2c(=O)[nH]c(C)nc21` (single isomer, unassigned) [Example 174, (S)- or (R)-3-(Difluoromethyl)-1-(2-methoxy-1-(4-(trifluoromethyl)phenyl)ethyl)-6-methyl-1H-pyrazolo[3,4-d]pyrimidin-4(5H)-one], the Ki – broadly, a dissociation constant, usually derived from enzyme kinetics or from competition with a known ligand – stood at 278 nM.
On to `Cc1nc2c(c(Br)nn2C(C)c2ccc(C(F)(F)F)cc2)c(=O)[nH]1` (single isomer, unassigned) [Example 324], for which the Ki is 465 nM.
`Cc1nc2c(c(CC(C)O)nn2C(C)c2ccc(C(F)(F)F)cc2)c(=O)[nH]1` (single isomer, unassigned) [Example 244]: the Ki amounted to 386 nM.
`Cc1nc2c(c(C(=O)N(C)C)nn2C(C)c2ccc(C(F)(F)F)cc2)c(=O)[nH]1` (single isomer, unassigned) [Example 267, (S)- or (R)-N,N,6-Trimethyl-4-oxo-1-(1-(4-(trifluoromethyl)phenyl)ethyl)-4,5-dihydro-1H-pyrazolo[3,4-d]pyrimidine-3-carboxamide]: the Ki was more than 2960 nM.
For the compound `Cc1nc2c(c(CO)nn2C(C)c2ccc(C(F)(F)F)nc2)c(=O)[nH]1` (single isomer, unassigned) [Example 130, (R)- or (S)-3-(Hydroxymethyl)-6-methyl-1-(1-(6-(trifluoromethyl)pyridin-3-yl)ethyl)-1H-pyrazolo[3,4-d]pyrimidin-4(5H)-one], the Ki was not below 2960 nM.
For `Cc1nc2c(c(CO)nn2C(C)c2ccc(C3(C)CC3)cc2)c(=O)[nH]1` (single isomer, unassigned) [Example 144, (S)- or (R)-3-(Hydroxymethyl)-6-methyl-1-(1-(4-(1-methylcyclopropyl)phenyl)ethyl)-1H-pyrazolo[3,4-d]pyrimidin-4(5H)-one] the value was 0.59 nM; for `CCc1nc2c(c(CO)nn2C(C)c2ccc(C(F)(F)F)cc2)c(=O)[nH]1` (single isomer, unassigned) [Example 301, (R)- or (S)-6-Ethyl-3-(hydroxymethyl)-1-{1-[4-(trifluoromethyl)phenyl]ethyl}-1,5-dihydro-4H-pyrazolo[3,4-d]pyrimidin-4-one], 4.7 nM; for `Cc1nc2c(c(CO)nn2C(C)c2ccc(C3(C)CC3)cc2)c(=O)[nH]1` (single isomer, unassigned) [Example 143, (R)- or (S)-3-(Hydroxymethyl)-6-methyl-1-(1-(4-(1-methylcyclopropyl)phenyl)ethyl)-1H-pyrazolo[3,4-d]pyrimidin-4(5H)-one], 193 nM.
In the case of `CC(c1ccc(C(F)(F)F)cc1)n1nc(-c2nnco2)c2c(=O)[nH]c(CC3CC3)nc21` (single isomer, unassigned) [Example 340, (R)- or (S)-6-(Cyclopropylmethyl)-3-(1,3,4-oxadiazol-2-yl)-1-(1-(4-(trifluoromethyl)phenyl)ethyl)-1,5-dihydro-4H-pyrazolo[3,4-d] pyrimidin-4-one], the Ki worked out at 2.2 nM.
For `Cc1nc2c(c(CO)nn2C(CC(F)(F)F)c2ccc(C(F)(F)F)cc2)c(=O)[nH]1` (single isomer, unassigned) [Example 96, (R)- or (S)-3-(Hydroxymethyl)-6-methyl-1-(3,3,3-trifluoro-1-(4-(trifluoromethyl)phenyl)propyl)-1H-pyrazolo[3,4-d]pyrimidin-4(5H)-one] the value was 16 nM; for `Cc1nc2c(c(CO)nn2C(C)c2ccc(OC(F)F)c(F)c2)c(=O)[nH]1` (single isomer, unassigned) [Example 112, (R)- or (S)-1-(1-(4-(Difluoromethoxy)-3-fluorophenyl)ethyl)-3-(hydroxymethyl)-6-methyl-1H-pyrazolo[3,4-d]pyrimidin-4(5H)-one], 88 nM; for `CC(=O)NCc1nn(C(C)c2ccc(C(F)(F)F)cc2)c2nc(C)[nH]c(=O)c12` (single isomer, unassigned) [Example 276], approximately 1520 nM.
Consider `Cc1nc2c(c(CO)nn2C2(c3ccc(C(F)(F)F)cc3)CC2)c(=O)[nH]1` [Example 142, 3-(Hydroxymethyl)-6-methyl-1-(1-(4-(trifluoromethyl)phenyl)cyclopropyl)-1H-pyrazolo[3,4-d]pyrimidin-4(5H)-one], for which the Ki was found to be 8.2 nM.
Next, `Cc1nc2c(c(C(F)F)nn2C(C)c2ccc(C(F)(F)F)cc2F)c(=O)[nH]1` (single isomer, unassigned) [Example 186, (S)- or (R)-3-(Difluoro-methyl)-1-(1-(2-fluoro-4-(trifluoromethyl)phenyl)ethyl)-6-methyl-1H-pyrazolo[3,4-d]pyrimidin-4(5H)-one]: 0.63 nM; `Cc1nc2c(c(-c3ccco3)nn2C(C)c2ccc(C(F)(F)F)cc2)c(=O)[nH]1` (single isomer, unassigned) [Example 75, (S)- or (R)-3-(Furan-2-yl)-6-methyl-1-(1-(4-(trifluoromethyl)phenyl)ethyl)-1H-pyrazolo[3,4-d]pyrimidin-4(5H)-one]: 203 nM; `Cc1nc2c(c(C(N)=O)nn2C(C)c2ccc(C(F)(F)F)cc2)c(=O)[nH]1` (single isomer, unassigned) [Example 257]: 115 nM.
For the compound `Cc1nc2c(c(C(F)F)nn2C(C)c2ccc(OC(F)(F)F)c(F)c2)c(=O)[nH]1` (single isomer, unassigned) [Example 170, (S)- or (R)-3-(Difluoromethyl)-1-(1-(3-fluoro-4-(trifluoromethoxy)phenyl)ethyl)-6-methyl-1H-pyrazolo [3,4-d]pyrimidin-4(5H)-one], the Ki came out at 0.48 nM.
Next, `Cc1nc2c(c(Br)nn2C(C)c2ccc(C(F)(F)F)cc2)c(=O)[nH]1` (single isomer, unassigned) [Example 325]: 3.7 nM.
Regarding `Cc1nc2c(c(CO)nn2C(C)c2ccc(OC(F)(F)F)cc2F)c(=O)[nH]1` (single isomer, unassigned) [Example 105, (S)- or (R)-1-(1-(2-Fluoro-4-(trifluoromethoxy)phenyl)ethyl)-3-(hydroxymethyl)-6-methyl-1H-pyrazolo[3,4-d]pyrimidin-4(5H)-one], the inhibition constant (Ki) was 1.9 nM.
On to `CC(C)Cc1nc2c(c(CO)nn2C(C)c2ccc(C(F)(F)F)cc2)c(=O)[nH]1` (single isomer, unassigned) [Example 306, (S)- or (R)-3-(Hydroxy-methyl)-6-isobutyl-1-(1-(4-(trifluoromethyl)phenyl)ethyl)-1,5-dihydro-4H-pyrazolo[3,4-d]pyrimidin-4-one], for which the Ki came to 568 nM.
As for `Cc1nc2c(c(CO)nn2C(C)c2ccc3c(c2)OC(F)(F)O3)c(=O)[nH]1` (single isomer, unassigned) [Example 115, (S)- or (R)-1-(1-(2,2-Difluorobenzo[d][1,3]dioxol-5-yl)ethyl)-3-(hydroxymethyl)-6-methyl-1H-pyrazolo[3,4-d]pyrimidin-4(5H)-one], the Ki was 7.2 nM.
For `CC(c1ccc(C(F)(F)F)cc1)n1nc(-c2nnco2)c2c(=O)[nH]c(CC3CCCC3)nc21` (single isomer, unassigned) [Example 342, (R) or (S)-6-(Cyclopentylmethyl)-3-(1,3,4-oxadiazol-2-yl)-1-(1-(4-(trifluoromethyl)phenyl)ethyl)-1,5-dihydro-4H-pyrazolo[3,4-d] pyrimidin-4-one] the value was 2.5 nM; for `Cc1nc2c(c(CC(O)C(F)(F)F)nn2C(C)c2ccc(C(F)(F)F)cc2)c(=O)[nH]1` (single isomer, unassigned) [Example 241], 610 nM.

Values taken from patent US10160762B2, “6-alkyl dihydropyrazolopyrimidinone compounds as PDE2 inhibitors” (Merck Sharp & Dohme Corp., priority 2015, dated 2018).
